Converted amounts (≈) assume the structure as drawn.
Columns and labels:
[1] = molecular target: T1, Nuclear receptor ROR-gamma (Homo sapiens) (UniProt P51449); assay: (§1) Transrepression of recombinant human GAL4-DBD fused RORgammat LBD expressed in HEK293 cells after 20 hrs by luciferase reporter gene assay; format: cell-based
T1 sequence (whole entry): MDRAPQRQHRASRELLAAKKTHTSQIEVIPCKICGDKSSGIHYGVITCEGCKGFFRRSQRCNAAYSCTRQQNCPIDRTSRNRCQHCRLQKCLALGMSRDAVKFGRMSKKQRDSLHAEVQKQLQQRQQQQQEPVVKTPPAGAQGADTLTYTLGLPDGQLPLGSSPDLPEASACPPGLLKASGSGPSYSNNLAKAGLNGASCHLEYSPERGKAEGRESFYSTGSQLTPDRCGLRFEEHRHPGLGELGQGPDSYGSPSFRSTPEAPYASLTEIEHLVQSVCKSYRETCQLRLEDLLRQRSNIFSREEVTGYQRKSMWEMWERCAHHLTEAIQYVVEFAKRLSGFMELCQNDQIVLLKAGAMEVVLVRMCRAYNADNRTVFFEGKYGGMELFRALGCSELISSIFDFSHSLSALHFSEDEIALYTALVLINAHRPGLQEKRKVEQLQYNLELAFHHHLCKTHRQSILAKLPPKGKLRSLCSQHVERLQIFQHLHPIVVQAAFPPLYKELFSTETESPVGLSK

[2] = molecular target: T2, Nuclear receptor ROR-gamma (Homo sapiens, UniProt P51449); assay: as §1; format: cell-based
T2 sequence (P51449 whole entry): T1 sequence (whole entry)

[3] = molecular target: T3, Nuclear receptor ROR-gamma (Mus musculus) (UniProt P51450); assay: (§2) Transrepression of recombinant mouse GAL4-DBD fused RORgammat LBD expressed in HEK293 cells after 20 hrs by luciferase reporter gene assay; format: cell-based
T3 sequence (whole entry): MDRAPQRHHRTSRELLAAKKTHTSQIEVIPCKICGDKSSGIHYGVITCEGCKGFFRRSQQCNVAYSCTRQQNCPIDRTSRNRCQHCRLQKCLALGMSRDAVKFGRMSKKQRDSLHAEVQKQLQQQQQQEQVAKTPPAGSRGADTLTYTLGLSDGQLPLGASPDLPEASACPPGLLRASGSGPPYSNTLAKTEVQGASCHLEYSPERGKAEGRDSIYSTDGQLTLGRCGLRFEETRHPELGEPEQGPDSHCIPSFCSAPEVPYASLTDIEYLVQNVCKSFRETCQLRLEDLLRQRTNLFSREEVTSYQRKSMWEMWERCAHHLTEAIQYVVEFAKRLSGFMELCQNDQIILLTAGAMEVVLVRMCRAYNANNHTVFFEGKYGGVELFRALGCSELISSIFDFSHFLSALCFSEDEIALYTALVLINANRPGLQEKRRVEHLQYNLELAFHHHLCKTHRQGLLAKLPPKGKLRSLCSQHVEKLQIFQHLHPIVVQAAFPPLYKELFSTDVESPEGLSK

[4] = molecular target: T4, Nuclear receptor ROR-gamma (Mus musculus, UniProt P51450); assay: as §2; format: cell-based
T4 sequence (P51450 whole entry): T3 sequence (whole entry)

[5] = molecular target: T4, Nuclear receptor ROR-gamma; assay: Transrepression of RORgammat in anti-CD3/CD28 stimulated C57BL/6 mouse CD4-positive T cells assessed as suppression of T cell differentiation to Th17 cells by measuring reduction in IL-17A level after 4 days by ELISA
[6] = Stability in human liver microsomes assessed as parent compound remaining after 2 hrs by LC-MS/MS analysis; format: ADME, microsome; conditions: read-out: Stability
[7] = Stability in rat liver microsomes assessed as parent compound remaining after 2 hrs by LC-MS/MS analysis; format: ADME, microsome; conditions: read-out: Stability
[8] = Solubility of the compound in NaCl/HCl buffer at pH 1.2 by shake-flask method; format: physicochemical
[9] = Solubility of the compound in KH2PO4/Na2HPO4 buffer at pH 6.8 by shake-flask method; format: physicochemical
[10] = molecular target: T5, Nuclear receptor ROR-alpha (Homo sapiens, UniProt P35398); assay: Displacement of [3H]T0901317 from recombinant human GST-fused RORalpha LBD after 1 to 4 hrs by microbeta scintillation counting method
T5 sequence (P35398 whole entry): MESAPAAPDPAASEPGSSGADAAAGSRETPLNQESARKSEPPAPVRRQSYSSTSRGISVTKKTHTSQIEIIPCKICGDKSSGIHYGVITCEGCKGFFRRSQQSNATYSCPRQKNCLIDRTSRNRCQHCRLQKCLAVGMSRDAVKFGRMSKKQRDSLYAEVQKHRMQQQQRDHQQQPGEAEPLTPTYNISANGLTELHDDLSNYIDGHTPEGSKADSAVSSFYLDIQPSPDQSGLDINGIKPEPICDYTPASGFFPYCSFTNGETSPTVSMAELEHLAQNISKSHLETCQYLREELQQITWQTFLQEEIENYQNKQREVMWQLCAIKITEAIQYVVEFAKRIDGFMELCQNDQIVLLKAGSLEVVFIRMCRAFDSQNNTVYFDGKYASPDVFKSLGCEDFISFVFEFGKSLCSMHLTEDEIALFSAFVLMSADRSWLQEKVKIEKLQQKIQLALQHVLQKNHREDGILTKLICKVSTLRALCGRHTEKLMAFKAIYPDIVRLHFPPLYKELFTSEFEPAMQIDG

[11] = molecular target: T6, Oxysterols receptor LXR-alpha (Homo sapiens, UniProt Q13133); assay: Transrepression of recombinant human GAL4-DBD fused LXRalpha LBD expressed in HEK293 cells after 20 hrs by luciferase reporter gene assay; format: cell-based
T6 sequence (Q13133 whole entry): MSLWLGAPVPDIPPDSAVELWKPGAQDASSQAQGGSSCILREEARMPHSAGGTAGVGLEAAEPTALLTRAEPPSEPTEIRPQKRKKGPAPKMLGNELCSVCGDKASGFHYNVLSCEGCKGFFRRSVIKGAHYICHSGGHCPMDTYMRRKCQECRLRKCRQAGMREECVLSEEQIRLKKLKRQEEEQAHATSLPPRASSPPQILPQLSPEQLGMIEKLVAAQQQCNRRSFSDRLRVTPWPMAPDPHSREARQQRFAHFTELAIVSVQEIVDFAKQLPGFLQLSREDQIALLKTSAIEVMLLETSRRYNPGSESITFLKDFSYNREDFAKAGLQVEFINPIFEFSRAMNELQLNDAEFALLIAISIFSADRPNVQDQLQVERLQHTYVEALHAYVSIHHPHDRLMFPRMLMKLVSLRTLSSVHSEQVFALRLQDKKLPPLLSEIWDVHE

[12] = AUC in rat at 0.5 mg/kg, iv; format: ADME, organism-based; conditions: in vivo
[13] = Total clearance in rat at 0.5 mg/kg, iv; format: ADME, organism-based; conditions: in vivo
[14] = Half life in rat at 0.5 mg/kg, iv; format: ADME, organism-based; conditions: in vivo
[15] = Volume of distribution at steady state in rat at 0.5 mg/kg, iv; format: ADME, organism-based; conditions: in vivo, read-out: Vdss
[16] = Cmax in rat at 1 mg/kg, po; format: ADME, organism-based; design: dose 1 mg/kg, route oral; conditions: in vivo
[17] = AUC in rat at 1 mg/kg, po; format: ADME, organism-based; conditions: in vivo
[18] = Tmax in rat at 1 mg/kg, po; format: ADME, organism-based; conditions: in vivo
[19] = Oral bioavailability in rat at 1 mg/kg; format: ADME, organism-based; conditions: in vivo
[20] = Fraction unbound in rat plasma at 1 mg/kg, po; format: ADME, organism-based

Efficacy [1] [%] | IC50 [2] [nM] | Efficacy [3] [%] | IC50 [4] [nM] | IC50 [5] [nM] | remaining at 2 h [6] [%] | remaining at 2 h [7] [%] | solubility thermodynamic [8] [µM] | solubility thermodynamic [9] [µM] | IC50 [10] [nM] | EC50 [11] [nM] | AUC [12] [ng·h/mL] | clearance [13] [mL/min/kg] | half-life [14] [h] | Vd [15] [L/kg] | Cmax [16] [ng/mL] | AUC [17] [ng·h/mL] | Tmax [18] [h] | bioavailability [19] [%] | fraction unbound [20] | Structure (SMILES)
100 | 29 | 85 | 340 | 200 | 95 | 89 | 29 (≈ 15 µg/mL) | 25 (≈ 13 µg/mL) | > 10000 | > 30000 | 1930 | 4.33 | 3.2 | 1.1 | 185 | 2110 | 4 | 54.5 | 0.034 | CCS(=O)(=O)c1ccc(CC(=O)Nc2ccc(C(C)(C)C(=O)Nc3ccc(F)cc3F)c(F)c2)cc1
95 | 25 | 85 | 250 | 420 | 63 | 77 | 26 (≈ 13 µg/mL) | 16 (≈ 8.01 µg/mL) | > 10000 | > 30000 | 986 | 8.45 | 2.5 | 1.7 | 85.3 | 786 | 2.5 | 39.9 | 0.036 | CCS(=O)(=O)c1ccc(CC(=O)Nc2ccc(C(C)(C)C(=O)Nc3ccc(F)cc3)c(F)c2)cc1
95 | 16 | 88 | 74 | 68 | 82 | 71 | 30 (≈ 15.3 µg/mL) | 9 (≈ 4.58 µg/mL) | > 10000 | > 30000 | 556 | 15 | 2.9 | 3.3 | 33.3 | 218 | 1 | 19.6 | 0.051 | CCS(=O)(=O)c1ccc(CC(=O)Nc2ccc(C(C)(C)C(=O)Nc3cc(C#N)ccn3)c(F)c2)cc1
